Publication PMC10146949, “Cytotoxicity Profiles and Neuroprotective Properties of the Novel Ifenprodil Analogues as Sigma Ligands” (Molecules, 2023)
Converted amounts (≈) assume the structure as drawn. Like-named read-outs stand apart in the source and are kept apart here.

Key:
S1R [1] = target: T1, S1R (Cavia porcellus, UniProt Q60492); assay: S1R radioligand binding assay, [3H](+)-pentazocine, guinea pig brain cortex homogenates; settings: for S2R/S1R selectivity ratio: ratio of Ki S2R to Ki S1R
T1 construct: Fresh guinea pig brain cortex was homogenized in ice-cold Tris (50 mM, pH 7.4); tissue ENVIGO RMS S.R.L., Udine, Italy (animals); host or cells: male Dunkin-Hartley guinea pig brain cortex membranes
Description: The bound radioactivity has been determined using a Beckman LS 6500 liquid scintillation counter (Beckman Coulter, Brea, CA, USA).
The test compound solutions were prepared by dissolving approximately 10 µmol of the test compound in DMSO to obtain a 10 mM stock solution.
Fresh guinea pig brain cortex was homogenized in ice-cold Tris (50 mM, pH 7.4) containing cold 0.32 M sucrose with a Potter-Elvehjem glass homogenizer. […] The final pellet was resuspended in ice-cold Tris buffer, and frozen at −80 °C. The protein concentration was determined by the method of Bradford [42].
Bound and free radioligand were separated by fast filtration under reduced pressure using a Millipore filter apparatus through Whatman GF 6 glass fiber filters, which were presoaked in a 0.5% poly(ethyleneimine) water solution for 120 min. Each filter paper was rinsed three times with 3 mL of ice-cold Tris buffer (50 mM, pH 7.4), dried at room temperature, and incubated overnight with 3 mL of Ultima Gold MV Scintillation cocktail into pony vials.
The Ki-values were calculated with the program GraphPad Prism® 6.0 (GraphPad Software, San Diego, CA, USA). The Ki-values are given as the mean value ± SD from at least two independent experiments performed in duplicate.

S2R [2] = target: T2, S2R (Rattus norvegicus, UniProt Q5U3Y7); assay: S2R radioligand binding assay, [3H]DTG, rat liver membranes
T2 construct: A few rat livers were homogenized in cold 0.32 M sucrose with a Potter-Elvehjem glass homogenizer; tissue ENVIGO RMS S.R.L., Udine, Italy (animals); host or cells: Sprague Dawley rat liver membranes
T2 sequence (Q5U3Y7 1-176): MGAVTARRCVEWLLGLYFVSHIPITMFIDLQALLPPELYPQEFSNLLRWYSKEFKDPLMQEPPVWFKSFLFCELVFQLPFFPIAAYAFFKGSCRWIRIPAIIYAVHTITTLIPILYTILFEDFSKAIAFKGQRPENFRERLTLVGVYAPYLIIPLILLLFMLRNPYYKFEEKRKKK

[3] = Cytotoxicity, resazurin cell viability test; assay type: cell-based, human; settings: human
Description: (§1) Cell viability was tested by using Resazurin (SERVA Electrophoresis GmbH, Heidelberg, Germany), which in metabolically active cells is reduced to Resufurin, a redox indicator, whose fluorescence is proportional to the number of live cells [43, 44].
(§2) The percentage of viability was calculated after subtraction of the background (obtained by killing the cells), on the basis of the ratio between the fluorescence values of the cells incubated with a compound and the fluorescence values of cells incubated with the solvent (1% DMSO). The viability of cells incubated with 1% DMSO was considered to be equivalent to 100%.
(§3) The statistical analysis was carried out with GraphPad Prism® 6.0 (GraphPad Software, Inc, La Jolla, CA, USA) software using an unpaired t-test. p < 0.05 was considered statistically significant. Cytotoxicity concentrations (IC50s) were determined from dose-response curves analyzed by using GraphPad Prism software.

ABTS radical scavenging = settings: ABTS 7 mM ethanolic, 45 min, 735 nm
Description: The compounds’ antioxidant capacity was evaluated by bleaching the green colored ethanolic solution of ABTS [41]. Test compounds (300 μL) were diluted as follows: 0.01, 0.025, 0.05, 0.1, and 0.2 mg/mL and added to 2.7 mL of ethanolic solution of ABTS (7 mM). These mixtures were incubated for 45 min at room temperature, and the absorbances were recorded at λ = 735 nm against the ABTS solution. The results were obtained as the percent of inhibition (% IC) of ABTS radical, calculated by the following formula. % IC = [(Abs ABTS − Abs Sample)/Abs ABTS] × 100
Data were expressed as mean value ± SD, and the assay was performed in triplicate.
The % IC was used to determine the IC50 values.

[4] = Hydrogen peroxide scavenging; settings: H2O2 2 mM, 230 nm
[5] = test system: SOD1 gene expression in SH-SY5Y cells; assay: Real-Time PCR of SOD1 mRNA levels; settings: 12.5 µM, 12 h; for effect on SOD1 expression (in words): vs DMSO
Description: (§4) Total RNA (500 ng) was primed with hexameric random primers and retrotranscribed into cDNA with M-MLV reverse transcriptase (Thermo Fisher Scientific, Waltham, MA, USA). The normalization of targets’ gene expression was performed against the housekeeping gene RPL13A. Real-Time PCRs were performed by using iQ SYBR Green Supermix and CFX96 Real-Time PCR detection system (Bio-Rad Laboratories, Redmond, WA, USA). The relative expression levels were calculated using the 2^−∆∆CT method. An unpaired T-test was used to determine statistical significance. Values are presented as mean and error bars indicate standard errors (SE). The results are representative of two independent experiments in triplicate.

[6] = test system: NRF2 gene expression in SH-SY5Y cells; assay: Real-Time PCR of NRF2 mRNA levels; settings: 12.5 µM, 12 h; for effect on NRF2 expression (in words): vs DMSO
Description: as §4

S1R [7] = settings: cited from earlier work
S1R [8] = assay: S1R affinity taken from the literature; assay type: binding; settings: ifenprodil, from literature Ki values
Source text: Table 2 Binding affinities towards S1R and S2R, for compounds 5a–o.

S2R [9] = target: S2R; design: method as in PMID 31319263; settings: ifenprodil, Table 2 footnote b; cited from earlier work
SH-SY5Y cells = assay: Cytotoxicity, resazurin cell viability test; assay type: cell-based, human
Description: as §1, §2, §3

T1 sequence (Q60492 whole entry): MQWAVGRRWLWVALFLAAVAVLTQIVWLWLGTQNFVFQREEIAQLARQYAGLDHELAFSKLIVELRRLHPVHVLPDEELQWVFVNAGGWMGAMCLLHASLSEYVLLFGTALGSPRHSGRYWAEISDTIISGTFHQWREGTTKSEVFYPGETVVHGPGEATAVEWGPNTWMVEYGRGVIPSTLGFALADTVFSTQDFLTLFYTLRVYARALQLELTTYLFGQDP

SMILES	Ki (S1R [1])	S2R/S1R selectivity ratio (S1R [1])	Ki (S2R [2]; read-out: Ki S2R)	Ki (S1R [1]; read-out: Ki S1R)	IC50 H2O2 [4]	also measured
CC(C(=O)c1ccccc1)N1CCCN(Cc2ccccc2)CC1 (stereo not drawn) [5a, 2-(4-Benzyl-1,4-diazepan-1-yl)-1-phenylpropan-1-one]	69 ± 14 nM	1.6	108 ± 21 nM			
CC(C(=O)c1ccccc1)N1CCN(c2ccccc2)CC1 (stereo not drawn) [5b, 2-(4-Phenylpiperazin-1-yl)-1-phenylpropan-1-one]		0.05	158 ± 30 nM	2930 ± 1150 nM		melting point: 105 to 106 °C
CC(C(=O)c1ccccc1)N(C)CCCCc1ccccc1 (stereo not drawn) [5c, 2-(Methyl(4-phenylbutyl)amino)-1-phenylpropan-1-one]		0.15	733 ± 106 nM	4720 ± 1690 nM		
CC(C(=O)c1ccccc1)N1CCN(Cc2ccccc2)CC1 (stereo not drawn) [5d, 2-(4-Benzylpiperazin-1-yl)-1-phenylpropan-1-one]	8 ± 1 nM	38	302 ± 65 nM		14.56 ± 0.18 µg/mL (≈ 47.2 µM)	IC50 ([3]; SH-SY5Y cells): 118000 nM; IC50 ABTS (ABTS radical scavenging): 2.854 ± 0.11 µg/mL (≈ 9.25 µM); SOD1 mRNA levels, fold increase compared to DMSO [5]: 1.3 fold; NRF2 mRNA levels, fold increase compared to DMSO [6]: 1.7 fold
COc1ccc(C(=O)C(C)N2CCCN(Cc3ccccc3)CC2)cc1 (stereo not drawn) [5e, 2-(4-Benzyl-1,4-diazepan-1-yl)-1-(4-methoxyphenyl)propan-1-one]	12 ± 2 nM	8.1			12.65 ± 0.21 µg/mL (≈ 35.9 µM)	Ki (S2R [2]): 97 ± 17 nM; IC50 ([3]; SH-SY5Y cells): 74000 nM; IC50 ABTS (ABTS radical scavenging): 2.495 ± 0.09 µg/mL (≈ 7.08 µM); effect on SOD1 expression (in words) [5]: did not significantly alter; effect on NRF2 expression (in words) [6]: did not change its expression significantly
COc1ccc(C(=O)C(C)N2CCN(c3ccccc3)CC2)cc1 (stereo not drawn) [5f, 2-(4-Phenylpiperazin-1-yl)-1-(4-methoxyphenyl)propan-1-one]		0.53	989 ± 337 nM	1860 ± 987 nM		melting point: 117 to 119 °C
COc1ccc(C(=O)C(C)N(C)CCCCc2ccccc2)cc1 (stereo not drawn) [5g, 1-(4-Methoxyphenyl)-2-(methyl(4-phenylbutyl)amino)propan-1-one]		3.3	386 ± 110 nM	117 ± 18 nM		
COc1ccc(C(=O)C(C)N2CCN(Cc3ccccc3)CC2)cc1 (stereo not drawn) [5h, 2-(4-Benzylpiperazin-1-yl)-1-(4-methoxyphenyl)propan-1-one]	1.4 ± 0.2 nM				466.24 ± 1.36 µg/mL (≈ 1380 µM)	Ki (S2R [2]): 84 ± 31 nM; IC50 ([3]; SH-SY5Y cells): 117000 nM; effect on SOD1 expression (in words) [5]: dramatically reduced; effect on NRF2 expression (in words) [6]: significant decrease
CC(C(=O)c1ccc(O)cc1)N1CCCN(Cc2ccccc2)CC1 (stereo not drawn) [5i, 2-(4-Benzyl-1,4-diazepan-1-yl)-1-(4-hydroxyphenyl)propan-1-one]	19 ± 3 nM	1.1			13.11 ± 0.24 µg/mL (≈ 38.7 µM)	Ki (S2R [2]): 22 ± 4 nM; IC50 ([3]; SH-SY5Y cells): 294000 nM; IC50 ABTS (ABTS radical scavenging): 2.603 ± 0.09 µg/mL (≈ 7.69 µM); effect on SOD1 expression (in words) [5]: did not significantly alter; NRF2 mRNA levels, fold increase compared to DMSO [6]: 2.8 fold
CC(C(=O)c1ccc(O)cc1)N(C)CCCCc1ccccc1 (stereo not drawn) [5j, 1-(4-Hydroxyphenyl)-2-(methyl(4-phenylbutyl)amino)propan-1-one]		0.38		121 ± 22 nM		Ki (S2R [2]): 45 ± 4 nM
CC(C(=O)c1ccc(O)cc1)N1CCN(Cc2ccccc2)CC1 (stereo not drawn) [5k, 2-(4-Benzylpiperazin-1-yl)-1-(4-hydroxyphenyl)propan-1-one]	19 ± 2 nM	6.8	129 ± 23 nM		436.43 ± 1.17 µg/mL (≈ 1350 µM)	IC50 ([3]; SH-SY5Y cells): 132000 nM; melting point: 58 to 59 °C; effect on SOD1 expression (in words) [5]: dramatically reduced; effect on NRF2 expression (in words) [6]: significant decrease
CC(C(=O)c1ccc(O)cc1)N1CCN(c2ccccc2)CC1 (stereo not drawn) [5l, 2-(4-Phenylpiperazin-1-yl)-1-(4-hydroxyphenyl)propan-1-one]		0.18	147 ± 17 nM	785 ± 226 nM		melting point: 163 to 165 °C
CC(C(O)c1ccccc1)N(C)CCCCc1ccccc1 (stereo not drawn) [5m, 2-(Methyl(4-phenylbutyl)amino)-1-phenylpropan-1-ol]	37 ± 10 nM	0.81				Ki (S2R [2]): 30 ± 8 nM
COc1ccc(C(O)C(C)N(C)CCCCc2ccccc2)cc1 (stereo not drawn) [5n, 1-(4-Methoxyphenyl)-2-(methyl(4-phenylbutyl)amino)propan-1-ol]	38 ± 9 nM	13	479 ± 93 nM			
COc1ccc(C(O)C(C)N2CCCN(Cc3ccccc3)CC2)cc1 (stereo not drawn) [5o, 2-(4-Benzyl-1,4-diazepan-1-yl)-1-(4-methoxyphenyl)propan-1-ol]		32	128 ± 26 nM	4.2 ± 0.6 nM	12.13 ± 0.25 µg/mL (≈ 34.2 µM)	IC50 ([3]; SH-SY5Y neuroblastoma cells): 118000 nM; IC50 ABTS (ABTS radical scavenging): 2.481 ± 0.05 µg/mL (≈ 7 µM); effect on SOD1 expression (in words) [5]: dramatically reduced; effect on NRF2 expression (in words) [6]: significant decrease
COc1cc2c(cc1OC)C(=O)C(CC1CCN(Cc3ccccc3)CC1)C2 (stereo not drawn) [Donepezil]						Ki (S1R [7]; donepezil): 14.6 nM
O=C(CCCN1CCC(O)(c2ccc(Cl)cc2)CC1)c1ccc(F)cc1 [Haloperidol, reference compound]						IC50 ([3]; SH-SY5Y neuroblastoma cells): 23000 nM; effect on SOD1 expression (in words) [5]: did not cause significant changes; effect on NRF2 expression (in words) [6]: did not cause significant changes
CC(C(O)c1ccc(O)cc1)N1CCC(Cc2ccccc2)CC1 (stereo not drawn) [Ifenprodil]						S2R/S1R selectivity ratio (S1R [8]): 0.75; Ki (S1R [7]; ifenprodil, Table 2 footnote b): 125 ± 24 nM; Ki (S2R [9]): 98 ± 34 nM
CCCN(CCC)CCc1ccc(OC)c(OCCc2ccccc2)c1 [NE100, reference compound]						IC50 (SH-SY5Y cells): 49000 nM
Fc1ccc(-n2cc(CCCCN3CCC4(CC3)OCc3ccccc34)c3ccccc32)cc1 [Siramesine, reference compound]						IC50 ([3]; SH-SY5Y neuroblastoma cells): 2000 nM
Cc1c(C)c2c(c(C)c1O)CCC(C)(C(=O)O)O2 (stereo not drawn) [Trolox, 6-hydroxy-2,5,7,8-tetramethylchroman-2-carboxylic acid, reference compound]					15.69 ± 0.69 µg/mL (≈ 62.7 µM)	IC50 ABTS (ABTS radical scavenging): 2.365 ± 0.19 µg/mL (≈ 9.45 µM)
